# Measured values reported in ChEMBL document CHEMBL3621162, “Virtual Screening and Biological Validation of Novel Influenza Virus PA Endonuclease Inhibitors” (ACS Med Chem Lett, 2015).
# Target: Polymerase acidic protein (Influenza A virus (strain A/X-31 H3N2), UniProt Q9IQ47)
# Assay: Inhibition of recombinant Influenza virus A/X-31 N-terminal RdRp PA subunit (1 to 217) expressed in Escherichia coli using single-stranded circular DNA plasmid M13mp18 as substrate after 2 hrs by agarose gel electrophoresis
# Set-up: species or system Influenza A virus (A/X-31(H3N2))
# Conditions: not given
row,Structure (SMILES),IC50
1,O=C(O)CC1C(=O)NCCN1CCCc1ccccc1 (configuration not stated),> 500 µM
2,O=C(NCCc1ccc(O)c(O)c1)c1cc2cc(O)c(O)cc2[nH]1,0.94 µM
3,O=C(O)C1C(C(=O)O)C(C(=O)O)C(C(=O)O)C(C(=O)O)C1C(=O)O (configuration not stated),> 500 µM
4,Cc1nc(SCc2ccccc2)nc(O)c1CC(=O)O,> 500 µM
5,CNC(=O)c1cccc(Nc2nc(O)nc(O)c2C#N)c1,> 500 µM
6,O=C(O)c1nccnc1C(=O)Nc1nc(-c2cccs2)n[nH]1,> 500 µM
7,Cc1cc(NC(=O)c2c(O)nc(O)[nH]c2=O)no1,> 500 µM
8,O=C(O)CCc1nn2c(nc1O)nc1ccccc12,> 500 µM
9,O=C(O)CCc1nnc(SCc2ccc(Cl)cc2)nc1O,> 500 µM
10,COc1cc2nc(N3CCOCC3)nc(N)c2cc1OC,> 500 µM
11,O=C(NCCCNC(=O)c1cc2cc(O)c(O)cc2[nH]1)c1cc2ccccc2[nH]1,65 µM
12,O=C(CC(=O)Nc1ccccc1)NNc1ccc([N+](=O)[O-])cc1,> 500 µM
13,Cc1cc(=O)oc2n[nH]c(C)c12,> 500 µM
14,O=C(NCCCCNC(=O)c1cc2cc(O)c(O)cc2[nH]1)c1cc2cc(O)c(O)cc2[nH]1,7 µM
15,CCOC(=O)c1c(O)c2cc(OC)ccc2n(C)c1=O,> 500 µM
16,O=C(O)/C(O)=C/C(=O)C1(Cc2ccc(Cl)cc2)CCN(Cc2ccccc2)CC1,0.48 µM

# Tested on: Influenza A virus
# Assay: Potency index, ratio of ribavirin EC99 to compound EC99 for Influenza A virus (A/PR/8/1934(H1N1)) infected in MDCK cells
# Assay type: functional, A/Puerto Rico/8/1934(H1N1)
# Conditions: not given
row,Structure (SMILES),Ratio
1,O=C(NCCc1ccc(O)c(O)c1)c1cc2cc(O)c(O)cc2[nH]1,2

# Tested on: Influenza A virus
# Assay: Antiviral activity against Influenza A virus (A/PR/8/1934(H1N1)) infected in MDCK cells assessed as 1-log10 reduction in viral RNA copy number after 24 hrs by quantitative RT-PCR analysis
# Assay type: functional, organism-based
# Conditions: A/Puerto Rico/8/1934(H1N1)
row,Structure (SMILES),EC50
1,O=C(NCCc1ccc(O)c(O)c1)c1cc2cc(O)c(O)cc2[nH]1,3.2 µM
2,O=C(NCCCNC(=O)c1cc2cc(O)c(O)cc2[nH]1)c1cc2ccccc2[nH]1,32 µM
3,O=C(NCCCCNC(=O)c1cc2cc(O)c(O)cc2[nH]1)c1cc2cc(O)c(O)cc2[nH]1,6.3 µM
4,O=C(O)/C(O)=C/C(=O)C1(Cc2ccc(Cl)cc2)CCN(Cc2ccccc2)CC1,5.4 µM

# Tested on: Influenza A virus
# Assay: Antiviral activity against Influenza A virus (A/PR/8/1934(H1N1)) infected in HEK293T cells assessed as reduction in viral RNP reconstitution measured at 24 hrs by luciferase reporter gene assay
# Assay type: functional, organism-based
# Conditions: A/Puerto Rico/8/1934(H1N1), HEK-293T
row,Structure (SMILES),EC50
1,O=C(NCCc1ccc(O)c(O)c1)c1cc2cc(O)c(O)cc2[nH]1,16 µM
2,O=C(NCCCNC(=O)c1cc2cc(O)c(O)cc2[nH]1)c1cc2ccccc2[nH]1,64 µM
3,O=C(NCCCCNC(=O)c1cc2cc(O)c(O)cc2[nH]1)c1cc2cc(O)c(O)cc2[nH]1,24 µM
4,O=C(O)/C(O)=C/C(=O)C1(Cc2ccc(Cl)cc2)CCN(Cc2ccccc2)CC1,3.4 µM
5,NC(=O)c1ncn([C@@H]2O[C@H](CO)[C@@H](O)[C@H]2O)n1 [RIBAVIRIN],8.4 µM

# Tested on: not listed separately
# Assay: Cytotoxicity against HEK293T cells assessed as cell viability measured at 24 hrs by MTS assay
# Assay type: cell-based, HEK-293T
# Conditions: human
row,Structure (SMILES),CC50 at 24 h
1,O=C(NCCc1ccc(O)c(O)c1)c1cc2cc(O)c(O)cc2[nH]1,110 µM
2,O=C(NCCCNC(=O)c1cc2cc(O)c(O)cc2[nH]1)c1cc2ccccc2[nH]1,> 200 µM
3,O=C(NCCCCNC(=O)c1cc2cc(O)c(O)cc2[nH]1)c1cc2cc(O)c(O)cc2[nH]1,> 200 µM
4,O=C(O)/C(O)=C/C(=O)C1(Cc2ccc(Cl)cc2)CCN(Cc2ccccc2)CC1,> 100 µM
5,NC(=O)c1ncn([C@@H]2O[C@H](CO)[C@@H](O)[C@H]2O)n1 [RIBAVIRIN],> 200 µM

# Tested on: Influenza A virus
# Assay: Potency index, ratio of ribavirin EC90 to compound EC90 for Influenza A virus (A/PR/8/1934(H1N1)) infected in MDCK cells
# Assay type: functional, A/Puerto Rico/8/1934(H1N1)
# Conditions: not given
row,Structure (SMILES),Ratio
1,O=C(NCCc1ccc(O)c(O)c1)c1cc2cc(O)c(O)cc2[nH]1,2

# Tested on: Influenza A virus
# Assay: Antiviral activity against Influenza A virus (A/PR/8/1934(H1N1)) infected in MDCK cells assessed as 2-log10 reduction in viral RNA copy number after 24 hrs by quantitative RT-PCR analysis
# Assay type: functional
# Conditions: A/Puerto Rico/8/1934(H1N1)
row,Structure (SMILES),EC99
1,O=C(NCCc1ccc(O)c(O)c1)c1cc2cc(O)c(O)cc2[nH]1,5.7 µM
2,O=C(NCCCNC(=O)c1cc2cc(O)c(O)cc2[nH]1)c1cc2ccccc2[nH]1,73 µM
3,O=C(NCCCCNC(=O)c1cc2cc(O)c(O)cc2[nH]1)c1cc2cc(O)c(O)cc2[nH]1,12 µM
4,O=C(O)/C(O)=C/C(=O)C1(Cc2ccc(Cl)cc2)CCN(Cc2ccccc2)CC1,8.4 µM
5,NC(=O)c1ncn([C@@H]2O[C@H](CO)[C@@H](O)[C@H]2O)n1 [RIBAVIRIN],11 µM

# Tested on: not listed separately
# Assay: Cytotoxicity against MDCK cells assessed as cell viability measured at 24 hrs by MTS assay
# Assay type: cell-based, Canis lupus familiaris
# Conditions: dog
row,Structure (SMILES),CC50 at 24 h
1,O=C(NCCc1ccc(O)c(O)c1)c1cc2cc(O)c(O)cc2[nH]1,≥ 50 µM
2,O=C(NCCCNC(=O)c1cc2cc(O)c(O)cc2[nH]1)c1cc2ccccc2[nH]1,> 200 µM
3,O=C(NCCCCNC(=O)c1cc2cc(O)c(O)cc2[nH]1)c1cc2cc(O)c(O)cc2[nH]1,> 200 µM
4,O=C(O)/C(O)=C/C(=O)C1(Cc2ccc(Cl)cc2)CCN(Cc2ccccc2)CC1,181 µM
5,NC(=O)c1ncn([C@@H]2O[C@H](CO)[C@@H](O)[C@H]2O)n1 [RIBAVIRIN],> 200 µM
